These results are taken from patent publication US8158828B2, “Nuclear receptor binding agents” (priority 2005, dated 2012).

Usually inhibition stands for the relative decrease from the control value, in per cent.

One experiment concerns the target T1, ER-α (Rattus norvegicus, UniProt P06211).
T1 sequence (P06211 1-600): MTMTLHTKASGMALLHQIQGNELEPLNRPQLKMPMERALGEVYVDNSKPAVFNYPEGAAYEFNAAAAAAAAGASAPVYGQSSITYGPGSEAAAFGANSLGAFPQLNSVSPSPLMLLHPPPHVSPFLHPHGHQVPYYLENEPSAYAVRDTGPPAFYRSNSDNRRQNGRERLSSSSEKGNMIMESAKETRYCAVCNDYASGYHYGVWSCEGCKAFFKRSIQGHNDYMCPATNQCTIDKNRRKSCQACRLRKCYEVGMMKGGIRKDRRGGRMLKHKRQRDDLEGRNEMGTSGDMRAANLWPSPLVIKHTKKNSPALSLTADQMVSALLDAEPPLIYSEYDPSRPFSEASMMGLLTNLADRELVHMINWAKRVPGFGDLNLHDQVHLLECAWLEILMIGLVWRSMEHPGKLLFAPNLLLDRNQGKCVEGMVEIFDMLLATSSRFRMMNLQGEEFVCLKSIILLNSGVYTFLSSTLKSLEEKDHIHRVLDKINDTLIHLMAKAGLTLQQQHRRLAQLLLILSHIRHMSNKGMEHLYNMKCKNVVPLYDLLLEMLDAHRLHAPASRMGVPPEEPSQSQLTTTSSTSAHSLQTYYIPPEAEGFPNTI
Description: ER-α transactivation, ERE-LUC in COS or 293 cells. Also on record: % estardiol activity, ER-α: dose or concentration left out as unconfirmed. In kind it is cell-based. The procedure: FIG. 1: Effects of the indicated compounds on ER-α transactivation. COS or 293 cells plated in DME without phenol red+10% charcoal stripped fetal bovine serum (csFBS) at 90,000 cells per well of 24 well plates were transfected with 0.25 μg ERE-LUC, 0.02 μg CMV-LUC (Renilla) and 25 ng of ER-α by lipofectamine. Twenty four hours after transfection, the cells were treated as indicated in the figure, harvested 48 hrs after transfection and were assayed for firefly and renilla luciferase.
FIG. 5: Effect of the indicated compounds on ER-α transactivation. COS or 293 cells plated in DME without phenol red+10% csFBS at 90,000 cells per well of a 24 well plate were transfected with 0.25 μg ERE-LUC, 0.02 μg CMV-LUC (Renilla) and […] of ER-α by lipofectamine. Twenty four hours after transfection, the cells were treated as indicated in the figure, harvested 48 hrs after transfection and were assayed for firefly and renilla luciferase.
FIG. 9: Effect of the indicated compounds on ER-α transactivation. COS or 293 cells plated in DME without phenol red+10% csFBS per well of a 24 well plate were transfected with 0.25 μg ERE-LUC, 0.02 μg CMV-LUC (Renilla) and 25 ng of ER-α by lipofectamine. Twenty four hours after transfection, the cells were treated as indicated in the figure, harvested 48 hrs after transfection and were assayed for firefly and renilla luciferase.
Also 25 ng of ER-α (FIGS. 1, 5, and 9), 50 ng of ER-β (FIGS. 2, 6 and 10) or 12.5 ng of AR (FIG. 3) were introduced by lipofectamine. All the receptors were cloned from rat tissue into the PCR3.1 vector backbone. […] Cells were harvested 48 hrs after transfection, and assayed for firefly and Renilla luciferase activity.
Also 25 ng of ER-α), 50 ng of ER-β or 12.5 ng of AR were introduced by lipofectamine. All the receptors were cloned from rat tissue into the PCR3.1 vector backbone. […] Cells were harvested 48 hrs after transfection, and assayed for firefly and Renilla luciferase activity.

The subject of experiment [1] is TRAP positive multinucleated osteoclasts. Description: TRAP positive multinucleated osteoclasts from bone marrow cells. The conditions noted are these: RANKL and GMCSF, 12 days. Format: cell-based, rat. The procedure: FIG. 7: Effect of the indicated compounds on TRAP positive multinucleated osteoclasts. Bone marrow cells from rat femur was cultured in Alpha MEM+10% csFBS without phenol red in the presence or absence of 30 ng/ml RANKL and 10 ng/ml GMCSF. The cells were treated for 12 days and were stained for tartarate resistant acid phosphatase activity (TRAP) and multinucleated osteoclasts were counted.
Bone marrow cells isolated from rat femur were cultured in Alpha MEM without phenol red+10% sterile FBS without phenol red in the presence or absence of […] RANKL and 10 ng/ml GMCSF. The cells were treated for 12 days were stained for tartarate resistant acid phosphatase activity (TRAP) positive multinucleated osteoclasts and were counted.

The test system of another experiment is osteoblasts. Description: Osteoblast activity. In kind it is cell-based.
In the next experiment the test system is uterus. Description: In vivo estrogenic activity, uterine weight. Also on record: species or system rat. The conditions noted are these: female rats, compound alone. The procedure:
Rats that were administered the vehicle alone served as controls.

A further experiment has as its target T2, ER-β (Rattus norvegicus, UniProt Q62986).
T2 construct: expressed in transfected cells; host or cells: COS or 293 cells
Description: ER-β transactivation, ERE-LUC in COS or 293 cells. In kind it is cell-based. The conditions noted are these: COS or 293 cells. As for the experimental part:
FIG. 2: Effect of the indicated compounds on ER-β transactivation. COS or 293 cells plated in DME without phenol red+10% csFBS at 90,000 cells per well of a 24 well plate were transfected with 0.25 μg ERE-LUC, 0.02 μg CMV-LUC (Renilla) and 50 ng of ER-β by lipofectamine. Twenty four hours after transfection, the cells were treated as indicated in the figure, harvested 48 hrs after transfection and were assayed for firefly and renilla luciferase.
FIG. 6: Effect of the indicated compounds on ER-β transactivation. COS or 293 cells plated in DME without phenol red+10% csFBS at 90,000 cells per well of a 24 well plate were transfected with 0.25 μg ERE-LUC, 0.02 μg CMV-LUC (Renilla) and 50 ng of ER-β by lipofectamine. Twenty four hours after transfection, the cells were treated as indicated in the figure, harvested 48 hrs after transfection and assayed for firefly and renilla luciferase.
FIG. 10: Effect of the indicated compounds on ER-β transactivation. COS or 293 cells plated in DME+10% csFBS at 90,000 cells per well of a 24 well plate were transfected with 0.25 μg ERE-LUC, 0.02 μg CMV-LUC (Renilla) and 50 ng of ER-β by lipofectamine. Twenty four hours after transfection, the cells were treated as indicated in the figure, harvested 48 hrs after transfection and were assayed for firefly and renilla luciferase.
(§1) All the receptors were cloned from rat tissue into the PCR3.1 vector backbone. […] Cells were harvested 48 hrs after transfection, and assayed for firefly and Renilla luciferase activity.
as §1

For experiment [2], the system named is pS2 (gene encoding the trefoil peptides) in MCF-7 cells. Description: pS2 gene expression in MCF-7 cells (realtime RT-PCR). Format: cell-based. The conditions noted are these: 16 hrs. The procedure: MCF-7 cells were plated at 500,000 cells per well of a 6 well plate. RNA was isolated and the message levels of pS2 (gene encoding the trefoil peptides) measured and normalized to 18S ribosomal RNA by realtime polymerase chain reaction (rtPCR).
FIG. 11: Agonistic activity of the indicated compounds in MCF-7 cells. MCF-7 cells were plated at 500,000 cells per well of a 6 well plate. RNA was isolated and the message levels of pS2 gene measured and normalized to 18S ribosomal RNA by realtime rtPCR.
MCF-7 cells were plated at 500,000 cells per well of a 6 well plate. The cells were serum starved for 3 days and then were treated as above for 16 hrs. RNA was isolated and gene expression levels assessed by realtime RT-PCR, following normalization to 18S ribosomal RNA.

The test system of another experiment is PC-3 cells. Description: Androgen independent prostate cancer cell growth. Format: cell-based. The conditions noted are these: for PC-3 growth inhibition, qualitative grading: in vitro, data not shown. The procedure:
PC-3 cells were plated in RPMI+10% csFBS at 6000 cells per well of a 96 well plate. Medium was changed to RPMI+1% csFBS without phenol red and then treated for 72 hrs with increasing concentrations of SERMs.
The prostate cancer cell line PC-3 was plated in RPMI+10% csFBS at 6000 cells per well of a 96 well plate. Medium was changed to RPMI+1% csFBS without phenol red and cells were treated for 72 hrs with increasing concentrations of SERMs.
PC-3 growth inhibition was determined qualitatively, in vitro, and represented as a grading system based on the ability of the SERMs to inhibit growth. The number −4 is for compounds that induced 100% growth inhibition at 1 uM, −3 for compounds that inhibit growth by about 75-90%, −2 for about 50-70% and −1 for inhibition less than 50% growth.

A further experiment has as its system CCRF/CEM. The conditions noted are these: estrogen receptor-negative cell line; cited from earlier work.
For experiment [3] the following is noted: rats; cited from earlier work.
The format of experiment [4] is in vivo, human. The following applies: 80 mg/day.
[5] abbreviates: baseline to month 12, compared to placebo.

T2 sequence (Q62986 whole entry): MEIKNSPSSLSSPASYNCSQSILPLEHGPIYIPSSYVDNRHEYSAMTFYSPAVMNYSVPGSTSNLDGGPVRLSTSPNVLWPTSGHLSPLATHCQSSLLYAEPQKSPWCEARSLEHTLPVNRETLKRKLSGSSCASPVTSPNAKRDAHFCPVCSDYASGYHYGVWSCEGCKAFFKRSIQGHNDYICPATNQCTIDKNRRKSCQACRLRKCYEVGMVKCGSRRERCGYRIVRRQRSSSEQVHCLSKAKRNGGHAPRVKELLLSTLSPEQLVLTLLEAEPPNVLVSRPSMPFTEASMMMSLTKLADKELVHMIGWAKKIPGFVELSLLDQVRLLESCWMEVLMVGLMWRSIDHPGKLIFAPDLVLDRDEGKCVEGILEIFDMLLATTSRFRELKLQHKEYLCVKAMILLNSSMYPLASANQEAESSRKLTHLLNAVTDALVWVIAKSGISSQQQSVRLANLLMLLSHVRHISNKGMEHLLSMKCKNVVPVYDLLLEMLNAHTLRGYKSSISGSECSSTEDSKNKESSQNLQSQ

Take `O=C(c1ccccc1)N(c1ccc(O)cc1)c1ccc(O)cc1` [Compound 3d, N,N-bis-(4-hydroxyphenyl)-benzamide]: at ER-α, the “% estardiol activity, ER-α” value worked out at 48%. Further, the “osteoclast differentiation / osteoclast activity” value in experiment [1] is “suppressed osteoclasts”. Further, the osteoblast activity result in the experiment on osteoblasts was “stimulated osteoblasts”. For the same compound, the “estrogenic activity in terms of uterine weight” value (shortened to “estrogenic activity in terms”) in the experiment with uterus was “exhibited estrogenic activity, in terms of increased uterine weight”.

`O=C(c1ccc(O)cc1)N(c1ccccc1)c1ccccc1` [Compound 3e, 4-hydroxy-N,N-diphenyl-benzamide]: the “% estardiol activity, ER-α” value on ER-α was 133%. For the same compound, the “ER-α activity (luciferase expression), compound alone” value at ER-α (COS or 293 cells) was “most potent in stimulating ER-α”. Moreover, the “ER-β LUC expression, compound alone” value at ER-β was “most potent in stimulating ER-β”. Further, the pS2 expression result in experiment [2] is “increased pS2 expression levels”. Moreover, the “osteoclast differentiation / osteoclast activity” value in experiment [1] was “highly suppressive of osteoclast activity”. The osteoblast activity result with osteoblasts is “stimulated osteoblast activity”. Further, in the experiment with uterus, the “estrogenic activity in terms” value is given as “exhibited no estrogenic, or anti-estrogenic activity in uterus”.

With `O=S(=O)(c1ccc(O)cc1)N(c1ccccc1)c1ccccc1` [Compound 3l, 4-hydroxy-N,N-diphenyl-phenyl-sulfonamide], the pS2 expression entry in experiment [2] is recorded as “increased pS2 expression levels”. The “PC-3 growth inhibition, qualitative grading” value in the experiment on PC-3 cells is given as −2 (−2 for about 50-70%). In addition, the “estrogenic activity in terms” value in the experiment with uterus is listed as “exhibited no estrogenic, or anti-estrogenic activity in uterus”.

Take `CCN(CC)CCOc1ccc(C(=C(Cl)c2ccccc2)c2ccccc2)cc1` [clomiphene]: the “viability of CCRF/CEM cells” value in the experiment with CCRF/CEM is “cause a decrease in viability”.

`C[C@]12CC[C@@H]3c4ccc(O)cc4CC[C@H]3[C@@H]1CC[C@@H]2O` [estrogen, Estradiol, reference compound]: the pS2 expression result in [2] is on record as “increased pS2”. In addition, in experiment [1], the “osteoclast differentiation / osteoclast activity” value was “strongly suppressed osteoclast differentiation”. The “incidence of lipo-polysaccharide induced inflammatory responses” value in [3] is listed as “reduce the incidence of lipo-polysacharride induced inflammatory responses”.

On to `COc1ccc2c(c1)CCC(c1ccccc1)=C2c1ccc(OCCN2CCCC2)cc1` [nafoxidine], for which the “viability of CCRF/CEM cells” value with CCRF/CEM was “cause a decrease in viability”.

Take `CC/C(=C(\c1ccccc1)c1ccc(OCCN(C)C)cc1)c1ccccc1` [tamoxifen]: in the experiment with CCRF/CEM, the “viability of CCRF/CEM cells” value is given as “cause a decrease in viability”. For the same compound, the “incidence of lipo-polysaccharide induced inflammatory responses” value in [3] is “reduce the incidence of lipo-polysacharride induced inflammatory responses”.

With `CN(C)CCOc1ccc(/C(=C(/CCCl)c2ccccc2)c2ccccc2)cc1` [toremifene], the “osteoclast differentiation / osteoclast activity” value in experiment [1] is recorded as “minimally but dose-dependently suppressed the osteoclast differentiation”. For the same compound, in the experiment with PC-3 cells (Homo sapiens, PC-3, 10 μM, 72 hrs), testing at 10 µM gave an inhibition of 100%. In the experiment with PC-3 cells, the “PC-3 growth inhibition, qualitative grading” value is reported as −2 (−2 for about 50-70%). Also, the “serum lipid parameters overall” value in [4] was “statistically significant improvement in all serum lipid parameters measured”. For the same compound, in experiment [4] (setting [5]), the “change in HDL levels” value is recorded as “+5.4%”, the “change in LDL” value is −9.0%, the “change in total circulating cholesterol” value was −7.1% and the “change in triglyceride levels” value was −20.1%.
